Our source for the TGI values is PubChem BioAssay (NCI).

Among the test systems are EKVX NSCLC; KM12 colon; A498 renal; HOP-92 NSCLC; CAKI-1 renal; SW-620 colon; MDA-MB-231 breast; MOLT-4 leukemia; TK-10 renal; UACC-257 melanoma; PC-3 prostate; HCT-15 colon; SK-MEL-28 melanoma; CCRF-CEM leukemia; HL-60(TB) leukemia; SR leukemia; K-562 leukemia; RPMI-8226 leukemia; HCT-116 colon.
What all share (experiment): NCI-60 cell line screen, 48 h

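Tested at 5 concentrations; 48 h exposure; 96-well plates; endpoints linearly interpolated, else capped at highest concentration. The concentration for full growth arrest is given as TGI.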

As to `COc1cc2c(cc1OC)-c1[nH]c3ccc(C#N)cc3c1CC(=O)N2`, the TGI in the assay on EKVX NSCLC, in the assay with KM12 colon, in the assay with A498 renal, with HOP-92 NSCLC, with CAKI-1 renal and in the assay on SW-620 colon was greater than 100 µM each time. For the same molecule, the TGI in the assay with MDA-MB-231 breast, with MOLT-4 leukemia, with TK-10 renal, with UACC-257 melanoma, in the assay with PC-3 prostate and in the assay on HCT-15 colon was greater than 100 µM throughout. The TGI in the assay on SK-MEL-28 melanoma was greater than 100 µM; in the assay with CCRF-CEM leukemia it was greater than 100 µM; in the assay on HL-60(TB) leukemia, 7.45 µM.
Take `COc1ccc(C2c3cc4c(cc3C(O)C3CCC(=O)N23)OCO4)cc1` (stereo not given): the TGI in the assay on EKVX NSCLC, with KM12 colon, with SR leukemia, in the assay with K-562 leukemia, with A498 renal and in the assay with RPMI-8226 leukemia was greater than 100 µM in each case. In addition, the TGI with HOP-92 NSCLC, in the assay with CAKI-1 renal, in the assay with SW-620 colon, in the assay with MOLT-4 leukemia, with TK-10 renal and in the assay on UACC-257 melanoma was greater than 100 µM in each case. Besides, the TGI in the assay with PC-3 prostate, in the assay with HCT-15 colon, in the assay with SK-MEL-28 melanoma, in the assay with HCT-116 colon, in the assay with CCRF-CEM leukemia and in the assay with HL-60(TB) leukemia was greater than 100 µM each time.
As for `NC1CC(=O)c2cc(Cl)sc21` (stereo not given), the TGI in the assay on EKVX NSCLC, with KM12 colon, in the assay on K-562 leukemia, in the assay with HOP-92 NSCLC, with CAKI-1 renal and in the assay with SW-620 colon was greater than 100 µM each time. Moreover, the TGI in the assay on MDA-MB-231 breast, with TK-10 renal, in the assay with UACC-257 melanoma, with PC-3 prostate, in the assay on HCT-15 colon and with SK-MEL-28 melanoma was greater than 100 µM throughout. In addition, the TGI in the assay with HCT-116 colon, with CCRF-CEM leukemia and in the assay with HL-60(TB) leukemia was greater than 100 µM in each case.
As to `O=C(O)c1c[nH]c2c(Sc3ccccc3)nccc2c1=O`, the TGI with EKVX NSCLC, with KM12 colon, with A498 renal, with HOP-92 NSCLC, with CAKI-1 renal and in the assay on SW-620 colon was greater than 100 µM each time. In addition, the TGI in the assay on MDA-MB-231 breast, in the assay on MOLT-4 leukemia, with TK-10 renal, in the assay on UACC-257 melanoma, in the assay on PC-3 prostate and in the assay with HCT-15 colon was greater than 100 µM throughout. In addition, the TGI in the assay with SK-MEL-28 melanoma, in the assay on HCT-116 colon, in the assay with CCRF-CEM leukemia and with HL-60(TB) leukemia was greater than 100 µM throughout.
In the case of `Cc1c2cnccc2c(C)c2c1[nH]c1ccc(O)cc12`, the TGI with EKVX NSCLC was greater than 10 µM; in the assay with KM12 colon it was 2.34 µM; with SR leukemia it was 2.88 µM; with K-562 leukemia it was greater than 10 µM; with RPMI-8226 leukemia, greater than 10 µM; with CAKI-1 renal it was greater than 10 µM. Besides, the TGI was 7.03 µM in the assay with SW-620 colon; 4.13 µM in the assay on MDA-MB-231 breast; greater than 10 µM with MOLT-4 leukemia; greater than 10 µM in the assay on TK-10 renal; greater than 10 µM with UACC-257 melanoma; greater than 10 µM with PC-3 prostate. Besides, the TGI was greater than 10 µM in the assay with HCT-15 colon; 9.94 µM in the assay with SK-MEL-28 melanoma; 2.2 µM in the assay on HCT-116 colon; greater than 10 µM in the assay with CCRF-CEM leukemia; 2.98 µM with HL-60(TB) leukemia.
With `COC(=O)[C@H](Cc1ccccc1)NC(=O)NCCN(CCNC(=O)N[C@@H](Cc1ccccc1)C(=O)OC)C(=O)N[C@@H](Cc1ccccc1)C(=O)OC`, the TGI in the assay with EKVX NSCLC was greater than 61.7 µM; in the assay on KM12 colon, 39.5 µM; in the assay on K-562 leukemia it was 61 µM; with A498 renal, greater than 82.7 µM; in the assay with RPMI-8226 leukemia it was 46.3 µM; with HOP-92 NSCLC, 70 µM. Besides, the TGI with CAKI-1 renal was greater than 63.6 µM; in the assay on SW-620 colon it was 43.8 µM; in the assay on MDA-MB-231 breast, 46.5 µM; with MOLT-4 leukemia it was 45 µM; with TK-10 renal, 37.3 µM; in the assay with UACC-257 melanoma it was 40.4 µM. Also, the TGI with PC-3 prostate was 40.6 µM; in the assay with HCT-15 colon it was greater than 100 µM; with SK-MEL-28 melanoma, 35.4 µM; in the assay with HCT-116 colon, 35.8 µM.
`CCOC(=O)NC(C(F)(F)F)(C(F)(F)F)P(=O)(OC(C)C)OC(C)C`: the TGI with EKVX NSCLC, with KM12 colon, in the assay on SR leukemia, in the assay with K-562 leukemia, in the assay with RPMI-8226 leukemia and in the assay on SW-620 colon was greater than 100 µM throughout. Moreover, the TGI in the assay on MDA-MB-231 breast, in the assay on MOLT-4 leukemia, with TK-10 renal, in the assay with UACC-257 melanoma, with PC-3 prostate and in the assay with HCT-15 colon was greater than 100 µM throughout. In addition, the TGI with SK-MEL-28 melanoma, in the assay on HCT-116 colon, with CCRF-CEM leukemia and with HL-60(TB) leukemia was greater than 100 µM throughout.
On to `CSc1nc2ccccc2c(=O)n1/N=C1\C(=O)N(CN2CCCCC2)c2ccc(Cl)cc21`, for which the TGI in the assay with EKVX NSCLC is greater than 100 µM; in the assay on KM12 colon, greater than 100 µM; in the assay with K-562 leukemia, greater than 100 µM; with A498 renal it was 96.6 µM; with HOP-92 NSCLC it was greater than 100 µM; in the assay with CAKI-1 renal, greater than 100 µM. Further, the TGI was 52.1 µM with SW-620 colon; greater than 100 µM in the assay with MDA-MB-231 breast; 39.9 µM in the assay with MOLT-4 leukemia; greater than 100 µM in the assay with TK-10 renal; 54.2 µM with UACC-257 melanoma; greater than 100 µM in the assay with PC-3 prostate. Also, the TGI in the assay on HCT-15 colon is greater than 100 µM; with SK-MEL-28 melanoma, greater than 100 µM; in the assay on HCT-116 colon it was greater than 100 µM; in the assay on CCRF-CEM leukemia, greater than 100 µM; in the assay with HL-60(TB) leukemia it was 50.1 µM.
